According to patent US6303366A, “Biodegradation of the gasoline oxygenates” (Envirogen, Inc., priority 1999, dated 2001):

What was measured:
ENV425 = experiment: Gas chromatography degradation assay, washed cells; type: cell-based, Nocardia; conditions: 30 mg/l, 24 hours, OD550 1.0
Method: Propane-oxidizing microorganisms were grown as described above on either propane, isopropanol, ethanol or acetone, to a cell density of OD550≥0.5. The cells were then collected by centrifugation, washed with BSM, and suspended to an OD550 of 1.0. […] The vials were sealed with Teflon-lined septa and crimp seals and incubated with shaking (250 rpm) at 30° C. for at least 24 hr. Control samples were prepared by adding 50 μl of 10 mM HgCl2 to replicate vials. HgCl2 killed the microorganisms present in the vials allowing these vials to serve as controls. At pre-determined time points, 50 μl of 10 mM HgCl2 were added to the incubating sample to stop the reaction or a sub-sample of the incubating sample was removed for analysis. Degradation of MTBE, ETBE or tert-butyl alcohol (TBA) was measured by gas chromatography.
Gas chromatography was performed by first removing cells from the samples by centrifugation of the sample vial or the sub-sample. A pre-sealed 2-ml autosampler vial was partially evacuated by inserting a syringe needle through the septa and removing 500 μl of air. Five hundred μl of the clear supernatant fraction of the cell culture were then injected into the vial. The samples were then analyzed by injecting 1 μl of the sample directly into a Varians Model 3400 gas chromatograph equipped with a 30 m Vocol capillary column (Supelco) and a flame ionization detector. The column, injector, and detector were maintained isocratically at 80° C., 200° C., and 225° C., respectively. Standard curves of each compound were generated with aqueous standards of 10 ppm, 25 ppm, 50 ppm, and 100 ppm.

[1] = rat model studies; oral; cited from earlier work

COC(C)(C)C [MTBE, methyl-tert-butyl ether]
% Degraded (ENV425; grown on isopropanol): 71%
% Degraded (ENV425; grown on propane): 67%
no-observable-adverse-effect-level (NOAEL) [1]: 100 mg/kg/day
